From PubChem BioAssay AID1963966 (Molecular Pharmacology Branch, DTP, NCI, 2024)

Test system: 935938-334-R-J1-PDC spheroids with HUVEC/MSC, viability
Test: Anticancer human tumor 935938-334-R-J1-PDC patient-derived small intestine adenocarcinoma cell line growth inhibition [PI3K]
Conditions: for IC50: curve of first compound; for viability, T/C: stronger effect = lower value
In short: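 Spheroid viability read-out. Co-cultures contained the tumor line plus HUVEC and human MSCs. Each agent was paired with a PI3K inhibitor (inavolisib, alpelisib, duvelisib, copanlisib) across half-log dilutions starting at clinical Cmax, or at 10 microM when Cmax was unknown.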

[1] = second compound 0.00316 µM, first compound 0.0316 µM
[2] = second compound 0.00316 µM, first compound 0.1 µM
[3] = second compound 0.00316 µM, first compound 0.316 µM
[4] = second compound 0.00316 µM, first compound 1 µM
[5] = second compound 0.00316 µM, first compound 3.16 µM
[6] = second compound 0.00316 µM, first compound 10 µM
[7] = second compound 0.01 µM, first compound 0.0316 µM
[8] = second compound 0.01 µM, first compound 0.1 µM
[9] = second compound 0.01 µM, first compound 0.316 µM
[10] = second compound 0.01 µM, first compound 1 µM
[11] = second compound 0.01 µM, first compound 3.16 µM
[12] = second compound 0.01 µM, first compound 10 µM
[13] = second compound 0.0316 µM, first compound 0.0316 µM
[14] = second compound 0.0316 µM, first compound 0.1 µM
[15] = second compound 0.0316 µM, first compound 0.316 µM
[16] = second compound 0.0316 µM, first compound 1 µM
[17] = second compound 0.0316 µM, first compound 3.16 µM
[18] = second compound 0.0316 µM, first compound 10 µM
[19] = second compound 0.1 µM, first compound 0.0316 µM
[20] = second compound 0.1 µM, first compound 0.1 µM
[21] = second compound 0.1 µM, first compound 0.316 µM
[22] = second compound 0.1 µM, first compound 1 µM
[23] = second compound 0.1 µM, first compound 3.16 µM
[24] = second compound 0.1 µM, first compound 10 µM
[25] = second compound 0.316 µM, first compound 0.0316 µM
[26] = second compound 0.316 µM, first compound 0.1 µM
[27] = second compound 0.316 µM, first compound 0.316 µM
[28] = second compound 0.316 µM, first compound 1 µM
[29] = second compound 0.316 µM, first compound 3.16 µM
[30] = second compound 0.316 µM, first compound 10 µM
[31] = second compound 1 µM, first compound 0.0316 µM
[32] = second compound 1 µM, first compound 0.1 µM
[33] = second compound 1 µM, first compound 0.316 µM
[34] = second compound 1 µM, first compound 1 µM
[35] = second compound 1 µM, first compound 3.16 µM
[36] = second compound 1 µM, first compound 10 µM
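Note: compound exposure lasted seven days before viability was read.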
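Throughout, for viability, T/C: percent of vehicle DMSO treated spheroid viability so 100% = untreated.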

C#Cc1c(F)ccc2cc(O)cc(-c3ncc4c(N5CC6CCC(C5)N6)nc(OCC56CCCN5CC(F)C6)nc4c3F)c12 (stereo not drawn) + COc1c(OCCCN2CCOCC2)ccc2c3n(c(=NC(=O)c4cnc(N)nc4)nc12)CCN3
IC50 (second compound 0.00316 µM): 5090 nM
IC50 (second compound 0.01 µM): 2250 nM
IC50 (second compound 0.0316 µM): 586 nM
IC50 (second compound 0.1 µM): 81.8 nM
IC50 (second compound 0.316 µM): < 31.6 nM
IC50 (second compound 1 µM): < 31.6 nM
viability, T/C [1]: 97.9%
viability, T/C [2]: 91.9%
viability, T/C [3]: 75.3%
viability, T/C [4]: 70.9%
viability, T/C [5]: 57%
viability, T/C [6]: 40.7%
viability, T/C [7]: 101%
viability, T/C [8]: 86.4%
viability, T/C [9]: 103%
viability, T/C [10]: 65.2%
viability, T/C [11]: 46.5%
viability, T/C [12]: 29.2%
viability, T/C [13]: 66.4%
viability, T/C [14]: 72.4%
viability, T/C [15]: 53.6%
viability, T/C [16]: 44.4%
viability, T/C [17]: 31%
viability, T/C [18]: 22.5%
viability, T/C [19]: 57.5%
viability, T/C [20]: 46.2%
viability, T/C [21]: 39.9%
viability, T/C [22]: 23%
viability, T/C [23]: 24.2%
viability, T/C [24]: 21.8%
viability, T/C [25]: 34.4%
viability, T/C [26]: 29.5%
viability, T/C [27]: 27.7%
viability, T/C [28]: 25.1%
viability, T/C [29]: 25.6%
viability, T/C [30]: 19.9%
viability, T/C [31]: 27.3%
viability, T/C [32]: 30.4%
viability, T/C [33]: 34.1%
viability, T/C [34]: 24.6%
viability, T/C [35]: 22.2%
viability, T/C [36]: 23.9%

C=CC(=O)N1CCN(c2nc(=O)n(-c3c(C)ccnc3C(C)C)c3nc(-c4c(O)cccc4F)c(F)cc23)C(C)C1 (stereo not drawn) + COc1c(OCCCN2CCOCC2)ccc2c3n(c(=NC(=O)c4cnc(N)nc4)nc12)CCN3
IC50 (second compound 0.00316 µM): > 10000 nM
IC50 (second compound 0.01 µM): > 10000 nM
IC50 (second compound 0.0316 µM): > 10000 nM
IC50 (second compound 0.1 µM): 2400 nM
IC50 (second compound 0.316 µM): < 31.6 nM
IC50 (second compound 1 µM): < 31.6 nM
viability, T/C [1]: 94%
viability, T/C [2]: 108%
viability, T/C [3]: 93.9%
viability, T/C [4]: 91%
viability, T/C [5]: 104%
viability, T/C [6]: 109%
viability, T/C [7]: 100%
viability, T/C [8]: 96%
viability, T/C [9]: 92.5%
viability, T/C [10]: 94.9%
viability, T/C [11]: 102%
viability, T/C [12]: 93.2%
viability, T/C [13]: 93.1%
viability, T/C [14]: 83.5%
viability, T/C [15]: 86.7%
viability, T/C [16]: 71.7%
viability, T/C [17]: 82.7%
viability, T/C [18]: 65.9%
viability, T/C [19]: 56.9%
viability, T/C [20]: 47.5%
viability, T/C [21]: 61.2%
viability, T/C [22]: 49.3%
viability, T/C [23]: 67%
viability, T/C [24]: 33%
viability, T/C [25]: 32.7%
viability, T/C [26]: 31.7%
viability, T/C [27]: 34.5%
viability, T/C [28]: 34.7%
viability, T/C [29]: 28.1%
viability, T/C [30]: 32.9%
viability, T/C [31]: 29.3%
viability, T/C [32]: 38.8%
viability, T/C [33]: 38.5%
viability, T/C [34]: 33%
viability, T/C [35]: 32.5%
viability, T/C [36]: 44.1%

CC(Cn1ccc(-c2ccc(C#N)c(Cl)c2)n1)NC(=O)c1cc(C(C)O)[nH]n1 (stereo not drawn) + COc1c(OCCCN2CCOCC2)ccc2c3n(c(=NC(=O)c4cnc(N)nc4)nc12)CCN3
IC50 (second compound 0.00316 µM): > 10000 nM
IC50 (second compound 0.01 µM): > 10000 nM
IC50 (second compound 0.0316 µM): > 10000 nM
IC50 (second compound 0.1 µM): 1020 nM
IC50 (second compound 0.316 µM): < 31.6 nM
IC50 (second compound 1 µM): < 31.6 nM
viability, T/C [1]: 98%
viability, T/C [2]: 87.8%
viability, T/C [3]: 84.1%
viability, T/C [4]: 89.2%
viability, T/C [5]: 121%
viability, T/C [6]: 107%
viability, T/C [7]: 97.6%
viability, T/C [8]: 95.2%
viability, T/C [9]: 88.1%
viability, T/C [10]: 77.2%
viability, T/C [11]: 99.4%
viability, T/C [12]: 78.7%
viability, T/C [13]: 75.8%
viability, T/C [14]: 61.2%
viability, T/C [15]: 88.5%
viability, T/C [16]: 79%
viability, T/C [17]: 89.1%
viability, T/C [18]: 67.1%
viability, T/C [19]: 40.6%
viability, T/C [20]: 57.2%
viability, T/C [21]: 54.6%
viability, T/C [22]: 49.9%
viability, T/C [23]: 41.2%
viability, T/C [24]: 33%
viability, T/C [25]: 36.6%
viability, T/C [26]: 35.6%
viability, T/C [27]: 29.5%
viability, T/C [28]: 36%
viability, T/C [29]: 33.9%
viability, T/C [30]: 30.8%
viability, T/C [31]: 35.8%
viability, T/C [32]: 39%
viability, T/C [33]: 43.6%
viability, T/C [34]: 39.9%
viability, T/C [35]: 31.4%
viability, T/C [36]: 28.9%

Cn1nccc1Nc1nccc(-c2ccn(C(CO)c3ccc(Cl)c(F)c3)c(=O)c2)n1 (stereo not drawn) + COc1c(OCCCN2CCOCC2)ccc2c3n(c(=NC(=O)c4cnc(N)nc4)nc12)CCN3
IC50 (second compound 0.00316 µM): 1380 nM
IC50 (second compound 0.01 µM): 1500 nM
IC50 (second compound 0.0316 µM): 566 nM
IC50 (second compound 0.1 µM): < 31.6 nM
IC50 (second compound 0.316 µM): < 31.6 nM
IC50 (second compound 1 µM): < 31.6 nM
viability, T/C [1]: 81.5%
viability, T/C [2]: 99.5%
viability, T/C [3]: 54.7%
viability, T/C [4]: 58.4%
viability, T/C [5]: 41.4%
viability, T/C [6]: 25.2%
viability, T/C [7]: 85.7%
viability, T/C [8]: 77.8%
viability, T/C [9]: 68.9%
viability, T/C [10]: 55.6%
viability, T/C [11]: 39.9%
viability, T/C [12]: 28%
viability, T/C [13]: 58.8%
viability, T/C [14]: 76.7%
viability, T/C [15]: 49.2%
viability, T/C [16]: 46.1%
viability, T/C [17]: 33.5%
viability, T/C [18]: 28%
viability, T/C [19]: 49.4%
viability, T/C [20]: 39.6%
viability, T/C [21]: 40.1%
viability, T/C [22]: 28%
viability, T/C [23]: 18.1%
viability, T/C [24]: 20.6%
viability, T/C [25]: 36.4%
viability, T/C [26]: 32%
viability, T/C [27]: 22.3%
viability, T/C [28]: 22.4%
viability, T/C [29]: 21.7%
viability, T/C [30]: 23%
viability, T/C [31]: 34.6%
viability, T/C [32]: 27%
viability, T/C [33]: 25.1%
viability, T/C [34]: 23.9%
viability, T/C [35]: 19.5%
viability, T/C [36]: 17.9%
